Here are results for nine compounds from PubChem BioAssay (NCI).

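Grown in 96-well plates, cells were treated for 48 hours with each compound at five concentrations. Insufficient inhibition: endpoint recorded as highest concentration tested. At the GI50, growth is halved. TGI denotes the concentration required for complete inhibition of growth.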 Where only a bound is given, the exact number is not on record here.

Holding throughout (experiment): NCI-60 cell line screen, 48 h
The test system of assay [1] is ACHN renal.
The subject of assay [2] is RPMI-8226 leukemia.
In assay [3] the test system is NCI-H460 lung.
Assay [4] concerns T-47D breast.
For assay [5], the system named is NCI-H23 lung.
The test system of assay [6] is OVCAR-5 ovarian.
Assay [7] concerns MCF7 breast.
Assay [8] relates to SF-295 CNS.
Assay [9] concerns SW-620 colon.
Assay [10] concerns IGROV1 ovarian.

For the compound `COc1ccc(-c2cc(-c3cc(OC)c(OC)c(OC)c3)c(C#N)c(N3CCOCC3)n2)cc1O`, the GI50 in assay [1] was 3.49 µM; in assay [2] it was 0.514 µM; in [3] it was 1.07 µM; in [4], 25.4 µM; in assay [5], 26.7 µM; in assay [7], 3.2 µM. Further, the GI50 in assay [8] was 6.38 µM; in [9], 3.87 µM; in [10] it was 19 µM. The TGI is more than 100 µM in assay [1]; 3.6 µM in assay [2]; more than 96.1 µM in assay [3]; more than 100 µM in assay [4]; more than 100 µM in [5]; more than 100 µM in [6]. The TGI in [7] was more than 100 µM; in [8], more than 73.8 µM; in assay [9], more than 100 µM; in assay [10], more than 100 µM.
Turning to `NC(=O)/C=C/NC(=O)/C=N\O`, the TGI in assay [1], in assay [2], in assay [3], in [4], in assay [6] and in assay [7] was more than 100 µM throughout. The TGI in [8], in assay [9] and in assay [10] was more than 100 µM in each case.
Turning to `CCCCCC/C=C\CCCCCCCCCC1=CC(=O)C=C(OC)C1=O`, the TGI in [1] worked out at 11.6 µM; in assay [2] it was 7.83 µM; in assay [3], 11.1 µM; in [4] it was 4.86 µM; in assay [5], 12 µM; in [6] it was 17.8 µM. For the same compound, the TGI came out at 15.3 µM in [7], 13.2 µM in [8], 17.5 µM in assay [9] and 3.86 µM in [10].
With `COc1ccc(C(=O)/C=C/c2ccc(OCC(=O)N3CCN(c4ccccc4)CC3)cc2)cc1`, the TGI in assay [1] is more than 100 µM; in [2], more than 77.8 µM; in assay [3] it was more than 100 µM; in assay [4], more than 100 µM; in assay [5], more than 100 µM; in assay [6], more than 100 µM. Also, the TGI was more than 100 µM in [7], 84.7 µM in assay [8], more than 100 µM in [9] and more than 65.8 µM in assay [10].
With `Cc1ccc(S(=O)(=O)Cc2nc(-c3ccc(C(=O)NCc4cccnc4)cc3)oc2C)cc1`, the GI50 in assay [1] was 7.06 µM; in [2], 0.0673 µM; in [3], 0.843 µM; in assay [4], 0.287 µM; in [7], 3.93 µM; in assay [8], 9.34 µM. The GI50 in assay [9] is less than 0.01 µM; in [10] it was 0.189 µM. Besides, the TGI in [1], in [2], in [3], in assay [4], in assay [6] and in assay [7] was more than 100 µM throughout. Besides, the TGI in [8], in assay [9] and in assay [10] was more than 100 µM each time.
As for `CCC1CCc2nc3sc(C(=O)Nc4ccccc4C)c(N)c3cc2C1` (stereo not given), the GI50 was 0.835 µM in [1]; 0.329 µM in assay [2]; 0.627 µM in assay [3]; 0.816 µM in [4]; 0.287 µM in assay [7]; 0.354 µM in assay [8]. The GI50 was 0.388 µM in assay [9] and more than 100 µM in assay [10]. Also, the TGI in [1], in [2], in assay [3], in assay [4], in assay [7] and in assay [8] was more than 100 µM in each case. In addition, the TGI in assay [9] and in assay [10] was more than 100 µM each time.
With `COc1ccc(-c2csc(-c3cc(Cl)cc(Cl)c3Cl)n2)cc1`, the GI50 in [1] is more than 100 µM; in assay [2], 67 µM; in assay [3] it was 46.5 µM; in assay [4] it was 40.3 µM; in assay [6], more than 100 µM; in [7], 5.91 µM. Also, the GI50 in assay [8] is 57.8 µM; in assay [9], 42.4 µM; in assay [10], 56.8 µM. Also, the TGI in assay [1], in assay [2], in assay [3], in [4], in assay [6] and in [7] was more than 100 µM each time. The TGI in [8], in assay [9] and in [10] was more than 100 µM in each case.
With `Nc1c(C(=O)Nc2ccccc2F)sc2nc3c(cc12)C(=O)CCC3`, the GI50 in assay [1] was more than 21.5 µM; in assay [3] it was 0.541 µM; in assay [4], 6.79 µM; in assay [5], 2.04 µM; in assay [6] it was 4.05 µM; in [7], 0.499 µM. Moreover, the GI50 in [8] is 0.611 µM; in assay [9], 0.721 µM; in assay [10], 2.92 µM. The TGI in assay [1] is more than 100 µM; in assay [3], more than 63.1 µM; in assay [4], more than 100 µM; in assay [5], more than 100 µM; in assay [6], more than 100 µM; in assay [7] it was more than 100 µM. Also, the TGI in assay [8] is more than 92.6 µM; in assay [9], more than 100 µM; in assay [10] it was more than 100 µM.
On to `CC1=C[S+](c2ccccc2)c2cccc3cc4ccccc4c1c23` (stereo not given), for which the GI50 is 0.734 µM in assay [1]; 0.0379 µM in assay [2]; 0.349 µM in [3]; 0.217 µM in assay [4]; 1.09 µM in [5]; 1.11 µM in [6]. The GI50 was 0.111 µM in [8], 0.321 µM in assay [9] and 0.467 µM in [10]. For the same compound, the TGI in assay [1] worked out at 14.4 µM; in assay [2] it was 0.862 µM; in [3] it was 2.37 µM; in assay [4], 1.25 µM; in [5], 2.86 µM; in [6] it was 2.52 µM. The TGI in assay [8] amounted to 0.584 µM; in [9], 1.65 µM; in assay [10] it was 3.11 µM.
